Consider ten compounds from PMC3705371, “Helicusin E, Isochromophilone X and Isochromophilone XI: New Chloroazaphilones Produced by the Fungus Bartalinia robillardoides Strain LF550” (Marine Drugs, 2013).

Like-named read-outs stand apart in the source and are kept apart here. Some results are limits rather than exact numbers.

The subject of one data set is Septoria tritici. In words: Antifungal assay, Septoria tritici (optical density). The data set is classed as cell-based. The settings on record: for IC50: Zymoseptoria tritici, read-out: IC50 Septoria tritici. How it is done:
Septoria tritici. The substances were dissolved in DMSO to a concentration of 10 mM and transferred into a 96-well microtiter plate. For screening purposes, the compounds were tested in a final concentration of 100 μM. The fungal strain S. tritici was cultured on MYG medium (1.0% malt extract, 0.4% yeast extract, 0.4% glucose·H2O, pH = 5.6) for four days, subsequently the culture was diluted to an optical density (600 nm) of 0.03 and added to the microtiter plate. After incubation for 48 h at 20 °C, the optical density was measured. The resulting values were compared to a positive (0.53 μM boscalid) and a negative control (no compound) on the same plate.

A further data set relates to Bacillus subtilis. In words: Antibacterial assay, Bacillus subtilis. In kind it is cell-based. The settings on record: for IC50: Bacillus subtilis, antibacterial. How it is done:
(§1) Bacillus subtilis, Staphylococcus lentus, Xanthomonas campestris and Candida albicans. The antimicrobial assays were performed as reported by Schulz et al..

In another data set the test system is Staphylococcus lentus. Kind of data set: Antibacterial assay, Staphylococcus lentus. In kind it is cell-based. The settings on record: for IC50: Mammaliicoccus lentus, antibacterial. Here is the method: as §1
Data set [1] concerns human hepatocellular carcinoma cell line (HepG2). In words: Cytotoxicity assay (CellTiterBlue), HepG2. The data set is classed as cell-based. The settings on record: HepG2 cells. Here is the method: (§2) Cytotoxicity assays. The sensitivity of the cell lines KIF5 and HepG2 to the isolated compounds was evaluated by monitoring the metabolic activity using the CellTiterBlue Cell Viability Assay (Promega, Mannheim, Germany). The human fibroblast cell line (KIF5) was provided by the Institute for Experimental Tumor Research, Section Molecular Oncology, Kiel, Germany, and the human hepatocellular carcinoma cell line (HepG2) was obtained from the German Collection of Microorganism and Cell Cultures (DSMZ, Braunschweig, Germany). The cytotoxicity assays were performed as described by Schulz et al., apart from the cell concentration, which were 5000 KIF5 cells and 10,000 HepG2 cells per vial.

The next data set deals with Acetylcholinesterase (Homo sapiens, UniProt P22303). In words: biochemical. In kind it is biochemical. The settings on record: for IC50: enzyme assay. How it is done:
(§3) Enzyme inhibition assays PDE4 and AChE assays were performed as described by Schulz et al. and Kim et al., respectively.

A further data set relates to Candida albicans. Kind of data set: Antifungal assay, Candida albicans. The data set is classed as cell-based. The settings on record: for IC50: antifungal. How it is done:
as §1

The subject of another data set is Phosphodiesterase 4. Kind of data set: Enzyme inhibition assay PDE4. In kind it is biochemical. The settings on record: for IC50: enzyme assay. Here is the method: as §3
In data set [2] the test system is human fibroblast cell line (KIF5). In words: Cytotoxicity assay (CellTiterBlue), KIF5. In kind it is cell-based. To be noted: KIF5 cells. How it is done:
as §2

For another data set, the system named is Trichophyton rubrum. In words: Antifungal assay, Trichophyton rubrum (optical density). The data set is classed as cell-based. The settings on record: for IC50: Trichophyton rubrum, antifungal, 72 h at 28 °C. Here is the method: Trichophyton rubrum. The substances were dissolved in DMSO to a concentration of 10 mM and transferred into a 96-well microtiter plate. For screening purposes, the compounds were tested in a final concentration of 100 μM. For inoculation 5 × 10^4 spores mL^−1 from the fungal strain T. rubrum diluted in Sabouraud medium (1.0% peptone, 2.0% glucose·H2O, pH = 5.6) were added to the microtiter plate. After incubation for 72 h at 28 °C the optical density was measured.

The subject of another data set is MRSA. To be noted: cited from earlier work.

Acetylcholinesterase, sequence (P22303 32-614, species assumed): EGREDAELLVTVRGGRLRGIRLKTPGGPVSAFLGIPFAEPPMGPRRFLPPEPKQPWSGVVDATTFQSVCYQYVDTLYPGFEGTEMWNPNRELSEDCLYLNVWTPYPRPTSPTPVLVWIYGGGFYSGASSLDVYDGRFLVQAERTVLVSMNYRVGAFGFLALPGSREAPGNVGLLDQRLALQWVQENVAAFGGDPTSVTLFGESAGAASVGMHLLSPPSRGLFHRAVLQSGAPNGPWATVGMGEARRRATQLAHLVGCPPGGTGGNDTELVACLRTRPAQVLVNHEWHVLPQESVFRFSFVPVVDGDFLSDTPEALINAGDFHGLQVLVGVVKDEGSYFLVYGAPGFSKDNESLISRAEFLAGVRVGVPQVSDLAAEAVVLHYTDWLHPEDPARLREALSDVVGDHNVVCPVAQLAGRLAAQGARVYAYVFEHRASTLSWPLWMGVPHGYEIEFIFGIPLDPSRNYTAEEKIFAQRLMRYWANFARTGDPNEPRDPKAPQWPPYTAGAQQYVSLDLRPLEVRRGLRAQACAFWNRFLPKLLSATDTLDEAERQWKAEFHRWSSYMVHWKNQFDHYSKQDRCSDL

For `O=C(Nc1ccccc1-c1ccc(Cl)cc1)c1cccnc1Cl` [boscalid, reference compound], the concentration for half-maximal inhibition (IC50) with Septoria tritici (48 h) was found to be 0.53 µM.
For `O=C(N[C@H](CO)[C@H](O)c1ccc([N+](=O)[O-])cc1)C(Cl)Cl` [chloram-phenicol, reference compound], the values for the concentration for half-maximal inhibition (IC50) with Bacillus subtilis and in the data set with Staphylococcus lentus were 1.45 µM and 2.13 µM, respectively.
Take `CC=CC(=O)OC1CC(C)OC(=O)CCC(O)CC1=O` (stereo not drawn) [compound 6, bartanolide]: in the data set on Bacillus subtilis, the “antibacterial activity against Bacillus subtilis (in words)” value is “inactive”. Moreover, the “cytotoxic activity (in words)” value in [1] and in data set [2] was “inactive” throughout. Further, the “inhibition of acetylcholinesterase (in words)” value against Acetylcholinesterase was “inactive”. Besides, the “inhibition of Candida albicans (in words)” value in the data set on Candida albicans was “inactive”. Also, the “inhibition of phosphodiesterase 4 (in words)” value with Phosphodiesterase 4 was “inactive”. Besides, the “inhibition of Septoria tritici (in words)” value in the data set on Septoria tritici was “inactive”. In the data set on Staphylococcus lentus, the “antibacterial activity against Staphylococcus lentus (in words)” value was “inactive”. Also, the “inhibition of Trichophyton rubrum (in words)” value in the data set with Trichophyton rubrum is “inactive”.
`CCC(C)C=C(C)C=CC1=CC2=C(Cl)C(=O)C(C)(O)C(=O)C2=CO1` (stereo not drawn) [deacetylsclerotiorin (2), 5-Chloro-3-[3,5-dimethyl-1,3-heptadien-1-yl]-7-hydroxy-7-methyl-6H-2-benzopyran-6,8(7H)-dione]: in the data set on Bacillus subtilis, the “antibacterial activity against Bacillus subtilis (in words)” value is “Weak”. The IC50 was 38.8 µM in the data set with Bacillus subtilis; above 50 µM at Acetylcholinesterase; 24 µM in the data set with Candida albicans (Candida albicans); 2.79 µM on Phosphodiesterase 4; 2.8 µM against Phosphodiesterase 4 (listed as 2); 7.45 µM with Septoria tritici (antifungal, 48 h at 20 °C). For the same compound, the figures for the half-maximal inhibitory concentration (IC50) with Staphylococcus lentus and in the data set with Trichophyton rubrum were 43.6 µM and 2.83 µM, respectively. Besides, the “inhibition of Candida albicans (in words)” value in the data set with Candida albicans is on record as “Significant inhibition”. Besides, in the data set with Septoria tritici, the “inhibition of Septoria tritici (in words)” value is “Significant inhibition”. Also, the “antibacterial activity against Staphylococcus lentus (in words)” value with Staphylococcus lentus is “Weak”. Besides, the “inhibition of Trichophyton rubrum (in words)” value in the data set on Trichophyton rubrum is recorded as “Significant inhibition”.
On to `CCC(C)/C=C(C)/C=C/C1=CC2=C(Cl)C(=O)[C@@](C)(OC(=O)/C=C(\C)CC(=O)O)C(=O)C2=CO1` (stereo partly drawn) [helicusin A (1), helicusin A], for which the IC50 in the data set with Bacillus subtilis was above 100 µM; against Acetylcholinesterase, 2.1 µM; in the data set with Candida albicans (Candida albicans), 24.4 µM; against Phosphodiesterase 4, above 10 µM; with Septoria tritici (antifungal, 48 h at 20 °C) it was 7.6 µM; in the data set on Staphylococcus lentus, above 100 µM. For the same compound, the IC50 in the data set on Trichophyton rubrum was 7.23 µM. Further, in the data set on Candida albicans, the “inhibition of Candida albicans (in words)” value is given as “Significant inhibition”. The “inhibition of Septoria tritici (in words)” value with Septoria tritici is “Significant inhibition”. The “inhibition of Trichophyton rubrum (in words)” value with Trichophyton rubrum was “Significant inhibition”.
With `CCC(C)C(O)C(C)(O)/C=C/C1=CC2=C(Cl)C(=O)[C@@](C)(OC(=O)/C=C(\C)CC(=O)O)C(=O)C2=CO1` (stereo partly drawn) [helicusin E (3), helicusin E], the half-maximal inhibitory concentration (IC50) with Bacillus subtilis is above 100 µM; at Acetylcholinesterase, above 50 µM; with Candida albicans (Candida albicans), above 200 µM; on Phosphodiesterase 4 it was above 10 µM; in the data set on Septoria tritici (antifungal, 48 h at 20 °C), above 100 µM; in the data set on Staphylococcus lentus it was above 100 µM. Also, in the data set on Trichophyton rubrum, the IC50 is above 100 µM.
Consider `CCC(C)/C=C(C)/C=C/C1=CC2=C(Cl)C(=O)C(C)(OC(C)=O)C(=O)C2=CN1CCCC(=O)O` (stereo not drawn) [isochromophilone IX], for which the MIC entry in the data set with MRSA is “approximately 100 μM”.
On to `CCC(C)/C=C(C)/C=C/C1=CC2=C(Cl)C(=O)[C@@](C)(OC(=O)/C=C(\C)CC(=O)O)C(=O)C2=CN1CCO` (stereo partly drawn) [isochromophilone X (4), isochromophilone X], for which the IC50 was above 100 µM in the data set on Bacillus subtilis; above 100 µM in the data set on Candida albicans (Candida albicans); 11.7 µM against Phosphodiesterase 4; above 100 µM with Septoria tritici (antifungal, 48 h at 20 °C); above 100 µM in the data set on Staphylococcus lentus; above 80 µM with Trichophyton rubrum.
As to `CCC(C)/C=C(C)/C=C/C1=CC2=C(Cl)C(=O)C(C)(OC(=O)/C=C(\C)CC(=O)O)C(=O)C2(O)CO1` (stereo not drawn) [isochromophilone XI (5), isochromophilone XI], in the data set on Bacillus subtilis, the “antibacterial activity against Bacillus subtilis (in words)” value is reported as “Weak”. The IC50 was 55.6 µM with Bacillus subtilis; above 50 µM on Acetylcholinesterase; above 100 µM in the data set on Candida albicans (Candida albicans); 8.3 µM at Phosphodiesterase 4; above 100 µM with Septoria tritici (antifungal, 48 h at 20 °C); 78.4 µM with Staphylococcus lentus. Further, the midpoint of inhibition with Trichophyton rubrum, the IC50, lay at 41.5 µM. The “antibacterial activity against Staphylococcus lentus (in words)” value in the data set on Staphylococcus lentus was “Weak”. The “inhibition of Trichophyton rubrum (in words)” value with Trichophyton rubrum is “weak activity”.
`C[C@@H]1[C@H](O)[C@@H](C)/C=C/C=C/CC/C=C/C=C/C=C/C=C/C(O[C@H]2O[C@H](C)[C@@H](O)[C@H](N)[C@@H]2O)CC2O[C@](O)(CC(O)C(O)CCC(O)CC(O)CC(O)CC(=O)O[C@H]1C)CC(O)C2C(=O)O` (stereo partly drawn) [nystatin, reference compound]: in the data set with Candida albicans, half-maximal inhibition (IC50) was put at 5.8 µM.
